Measurements published in US5789440A, “5,6-dihydropyrone derivatives as protease inhibitors and antiviral agents” (Warner-Lambert Company, priority 1994, dated 1998).
Converted amounts (≈) assume the structure as drawn. Like-named read-outs stand apart in the source and are kept apart here.

Key:
HIV-1 Protease = biological target: T1, HIV-1 Protease (Human immunodeficiency virus type 1 group M subtype B, UniProt P04585); experiment: HIV protease inhibition (undecapeptide substrate cleavage, HPLC); format: biochemical; settings: 37° C., 5 min, 40 μM substrate, pH 4.7, 2% DMSO, read-out: 50% INHIBITION CONCENTRATION
T1 construct: HIV-1 Protease; purchased Bachem Bioscience Inc
Procedure: 1.0 mM dithiothreitol (DTT) was prepared fresh daily in 0.1% polyethylene glycol (mw 8000) 80 mM NaOAc, 160 mM NaCl, 1.0 mM EDTA, and brought to pH 4.7 with HCl.
The enzyme is obtained from Bachem Bioscience Inc. The undiluted enzyme is thawed from -80° C. and diluted 50-fold with DTT buffer. The solution is always kept at 0° C. on ice water and used in the experiment within 20 minutes after thawing.
Substrate III from Bachem Bioscience Inc. is the undecapeptide H-His-Lys-Ala-Arg-Val-Leu-p-Nitrophenylalanine-Glu-Ala-Norleucine-Ser-NH2 (>97% purity). A 200 μM stock solution in DTT buffer is prepared and stored on ice. Substrate solution is prepared fresh daily.
10 mM inhibitor (I) in dimethyl sulfoxide (DMSO) is diluted to 200 μM with DTT buffer. From the 200 μM stock solution is made a 10 μM stock solution with 2% DMSO in DTT buffer. The two inhibitor solutions are used to make final [I] =100, 50, 20, 10, 5, 2, 1, 0.5 and 0 μM with 2% DMSO in DTT buffer in each reaction well (total inhibitor volume of 50 μl).
To each reaction well is added 20 μl of substrate (final concentration of 40 μM), 50 μl of inhibitor (at a concentration such that final dilution will produce the test concentration) and 20 μl of DTT buffer. The reaction plate (96 wells) is incubated at 37° C. for at least 5 minutes.
10 μl of the diluted protease is added to the reaction well while the reaction plate is shaking. Once shaken for 10 seconds, the plate is returned to the heating block at 37° C. (final reaction volume 100 μl.)
The reaction is incubated for 5 minutes at 37° C. The reaction is stopped by placing the reaction plate on the shaker and adding 20 μl of 10% trifluoroacetic acid (TFA) and shaking for 10 seconds. The amount of proteolysis is then determined by separation of noncleaved substrate and two cleaved products with reverse-phase HPLC, while measuring absorbance at 220 nm to determine the relative peak areas of the three components. The relative peak areas are used to calculate % conversion to product as a function of inhibitor concentration. The data are plotted as % Control (the ratio of % conversion in the presence and absence of inhibitor×100) versus inhibitor concentration and fitted with the equation Y=100/1+(X/IC50)^A, where IC50 is the inhibitor concentration at 50% inhibition and A is the slope of the inhibition curve.

[1] = system: Streptococcus pyogenes C203; experiment: Antibacterial activity, microtitration dilution method; format: cell-based; settings: read-out: minimum inhibitory concentration (MIC)
From the text: (§1) The compounds of the invention display antibacterial activity when tested by the microtitration dilution method as described in Heifetz, et al., Antimicr. Agents. & Chemoth. 6: 124 (1974) which is incorporated herein by reference.
(§2) By use of the above referenced method, the following minimum inhibitory concentration values (MICs in μg/mL) were obtained for representative compounds of the invention vs. clinically relevant gram positive pathogens which have become highly resistant to conventional therapy in recent years.

[2] = system: Staphylococcus aureus UC-76; experiment: as above; format: cell-based; settings: UC76, read-out: minimum inhibitory concentration (MIC)
From the text: as §1, §2

[3] = system: Streptococcus pneumonia 5V-1; experiment: as above; format: cell-based; settings: Streptococcus pneumoniae, 5V1, read-out: minimum inhibitory concentration (MIC)
From the text: as §1, §2

[4] = system: Staphylococcus aureus H228; experiment: as above; format: cell-based; settings: read-out: minimum inhibitory concentration (MIC)
From the text: as §1, §2

[5] = system: Enterococcus foecalis MGH2; experiment: as above; format: cell-based; settings: read-out: minimum inhibitory concentration (MIC)
From the text: as §1, §2

HIV1iiib in H9 cells = experiment: Antiviral activity in H9 cells (acute HIV-1 infection, reverse transcriptase assay); format: cell-based; settings: read-out: Concentration for 50% Protection
Procedure: Using the general methods of Pauwels et al., (J. Virol. Methods, 16, 171-185, 1987) and Mann et al. (AIDS Research and Human Retroviruses, 253-255, 1989 (anti-viral assays of active HIV-1 infection were performed in the H9 cell line. Cultures were batch infected in 1 ml of RPM1 1640 media/10% fetal calf serum containing 10^5 infectious doses of HIV1iiib for an effective multiplicity of infection of 0.01. After 2 hours of viral absorption, cells were washed once and palted in 96-wellmicrotiter plates at a density of 10^4 cells per well. Test compounds were added to produce the desired concentration of drug and 0.1% DMSO in a final volume of 200 μl. Uninfected parallel cultures were maintained for XTT cytotoxicity assay at 7 days post infection. Cultures were tested for viral replication by reverse transcriptase assay at 4 and 7 days post infection.

[6] = Human immunodeficiency virus 1, multiplicity of infection 0.01, 0.1% DMSO

Compound | IC50 (HIV-1 Protease) [nM] | other results
O=C1OC(CCc2ccccc2)(c2ccccc2)CC(O)=C1SCc1ccccc1 (racemic) [Example 39, 5,6-Dihydro-4-hydroxy-6-phenyl-6-(2-phenylethyl)-3-[(phenylmethyl)thio]-2H-pyran-2-one] | 50 | 
O=C(CCCC1(c2ccccc2)CC(O)=C(SCc2ccccc2)C(=O)O1)NCc1ccccc1 (racemic) [Example 61, N-Benzyl-4-(3,6-dihydro-4-hydroxy-6-oxo-2-phenyl-5-[(phenylmethyl)thio]-2H-pyran-2-yl)butyramide] | 220 | 
O=C1OC(CCc2ccc(Cl)c(Cl)c2)(c2ccccc2)CC(O)=C1SCc1ccccc1 (racemic) [Example 44, 6-[2-(3,4-Dichlorophenyl)ethyl]-5,6-dihydro-4-hydroxy-6-phenyl-3-[(phenylmethyl)thio]-2H-pyran-2-one] | 320 | 
O=C1OC(c2ccccc2)(c2ccccc2)CC(O)=C1CCCc1ccccc1 [Example 66, 5,6-Dihydro-4-hydroxy-6,6-diphenyl-3-(3-phenylpropyl)-2H-pyran-2-one] | 390 | 
CC(C)c1ccccc1SC1=C(O)CC(CCc2ccccc2)(c2ccccc2)OC1=O (racemic) [Example 72, 5,6-Dihydro-4-hydroxy-3-(2-isopropylphenylthio)-6-phenyl-6-(2-phenylethyl)-2H-pyran-2-one] |  | MIC [1]: 25 µg/mL (≈ 56.2 µM); MIC [2]: 25 µg/mL (≈ 56.2 µM); MIC [3]: 25 µg/mL (≈ 56.2 µM); MIC [4]: 25 µg/mL (≈ 56.2 µM); MIC [5]: 100 µg/mL (≈ 225 µM)
CCCCC1(c2ccccc2)CC(O)=C(SCc2ccccc2)C(=O)O1 (racemic) [Example 29, 6-Butyl-5,6-dihydro-4-hydroxy-6-phenyl-3-[(phenylmethyl)thio]-2H-pyran-2-one] | 260 | 
CC(C)CCC1(c2ccccc2)CC(O)=C(SCc2ccccc2)C(=O)O1 (racemic) [Example 35, 5,6-Dihydro-4-hydroxy-6-(3-methylbutyl)-6-phenyl-3-[(phenylmethyl)thio]-2H-pyran-2-one] | 120 | 
O=C1OC2(CCCc3ccccc32)CC(O)=C1SCc1ccccc1 (racemic) [Example 52, 3,4-Dihydro-4'-hydroxy-5'-[(phenylmethyl)thio]-spiro[naphthalene-1(2H),2'-[2H]pyran]-6'(3'H)-one] | 2000 | 
O=C1OC(CCc2ccccc2)(c2ccccc2)CC(O)=C1SCc1ccccc1-c1ccccc1 (racemic) [Example 92, 3-(Biphenyl-2-ylmethylthio)-5,6-dihydro-4-hydroxy-6-phenyl-6-(2-phenylethyl)-2H-pyran-2-one] | 270 | 
O=C1OC(c2ccccc2)(c2ccncc2)CC(O)=C1SCCc1ccccc1 (racemic) [Example 57, 5,6-Dihydro-4-hydroxy-6-phenyl-3-[(2-phenylethyl)thio]-6-pyridin-4-yl-2H-pyran-2-one] | 650 | 
O=C(O)CCCCC1(c2ccccc2)CC(O)=C(SCCc2ccccc2)C(=O)O1 (racemic) [Example 56, 5-(3,6-Dihydro-4-hydroxy-6-oxo-2-phenyl-5-[(2-phenylethyl)thio]-2H-pyran-2-yl)pentanoic acid] | 5 | 
O=C1OC(c2ccccc2)(c2ccccc2)CC(O)=C1SCc1ccccc1 [Example 37, 5,6-Dihydro-4-hydroxy-6,6-diphenyl-3-[(phenylmethyl)thio]-2H-pyran-2-one] | 260 | 
CC(C)CCC1(c2ccccc2)CC(O)=C(Sc2ccccc2C(C)C)C(=O)O1 (racemic) [Example 75, 5,6-Dihydro-4-hydroxy-6-(3-methylbutyl)-6-phenyl-3-(2-isopropyl-phenylthio)-2H-pyran-2-one] | 28 | 
CC(C)CCC1(c2ccccc2)CC(O)=C(SCc2ccccc2Cl)C(=O)O1 (racemic) [Example 94, 3-(2-Chlorophenylmethylthio)-5,6-dihydro-4-hydroxy-6-(3-methylbutyl)-6-phenyl-2H-pyran-2-one] | 220 | EC50 (HIV1iiib in H9 cells; [6]): 29000 nM
O=C1OC(CCc2ccccc2)(c2ccccc2)CC(O)=C1Sc1ccccc1 (racemic) [Example 71, 5,6-Dihydro-4-hydroxy-6-phenyl-6-(2-phenylethyl)-3-phenylthio-2H-pyran-2-one] | 100 | 
Cc1cccc(SC2=C(O)CC(c3ccccc3)(c3ccccc3)OC2=O)c1 [Example 70, 5,6-Dihydro-4-hydroxy-3-(3-methylphenylthio)-6,6-diphenyl-2H-pyran-2-one] | 110 | 
O=C1OC(CCc2ccccc2)(c2ccccc2)CC(O)=C1SCCc1ccccc1 (racemic) [Example 40, 5,6-Dihydro-4-hydroxy-6-phenyl-6-(2-phenylethyl)-3-[(2-phenylethyl)thio]-2H-pyran-2-one] | 60 | 
O=C1OC(CCc2ccccc2)(c2ccccc2)CC(O)=C1Cc1ccccc1C(F)(F)F (stereo not shown) [Example 114, 5,6-Dihydro-4-hydroxy-6-phenyl-6-(2-phenylethyl)-3-[(2-trifluoromethylphenyl)methyl]-2H-pyran-2-one] | 79 | EC50 (HIV1iiib in H9 cells; [6]): 26000 nM
CC(C)CC1(c2ccccc2)CC(O)=C(SCc2ccccc2)C(=O)O1 (racemic) [Example 5, 5,6-Dihydro-4-hydroxy-6-(2-methylpropyl)-6-phenyl-3-[(phenylmethyl)thio]-2H-pyran-2-one] | 400 | 
CC(C)CCC1(c2ccccc2)CC(O)=C(SCc2ccccc2-c2ccccc2)C(=O)O1 (racemic) [Example 95, 3-(Biphen-2-ylmethylthio)-5,6-dihydro-4-hydroxy-6-(3-methylbutyl)-6-phenyl-2H-pyran-2-one] | 1090 | EC50 (HIV1iiib in H9 cells; [6]): 39000 nM
O=C1OC(c2ccccc2)CC(O)=C1SCCc1ccccc1 (racemic) [Example 2, 5,6-Dihydro-4-hydroxy-6-phenyl-3-[(2-phenylethyl)thio]-2H-pyran-2-one] | 1900 | 
O=C1OC(c2ccc(OCc3ccccc3)cc2)CC(O)=C1SCCc1ccccc1 (stereo not shown) [Example 14] | 2500 | 
CCCCC1(c2ccc(-c3ccccc3)cc2)CC(O)=C(SCCc2ccccc2)C(=O)O1 (racemic) [Example 22, 6-[1,1'-Biphenyl]-4-yl-6-butyl-5,6-dihydro-4-hydroxy-3-[(2-phenylethyl)thio]-2H-pyran-2-one] | 1100 | 
5,6-Dihydro-4-hydroxy-3-[(3-methoxyphenyl)methyl]-6-phenyl-6-(2-phenylethyl)-2H-pyran-2-one [Example 119] | 97 | EC50 (HIV1iiib in H9 cells; multiplicity of infection 0.01, 0.1% DMSO): 59000 nM
Cc1ccc(C)c(CSC2=C(O)CC(CCc3ccccc3)(c3ccccc3)OC2=O)c1 (racemic) [Example 90, 5,6-Dihydro-4-hydroxy-3-[(2,5-dimethylphenyl)methylthio]-6-phenyl-6-(2-phenylethyl)-2H-pyran-2-one] | 140 | 
O=C1OC(CC2CCCC2)(c2ccccc2)CC(O)=C1SCc1ccccc1 (racemic) [Example 50, 6-Cyclopentylmethyl-5,6-dihydro-4-hydroxy-6-phenyl-3-[(phenylmethyl)thio]-2H-pyran-2-one] | 88 | 
